Assay results from US9668497B2, “Flavor-enhancing compounds” (INTERNATIONAL FLAVORS & FRAGRANCES INC., priority 2015, dated 2017).

Key:
[1] = Sensory description of Formula I alone in water; format: in vivo; settings: 20 ppm in water
[2] = Cooling enhancement in menthol (35 ppm), trained sensory panel; format: in vivo
Method: The flavor compositions of menthol (35 ppm) combined with 7,8-dihydroxy-2-phenyl-4H-chromen-4-one (Formula I) at different concentrations were evaluated by a trained sensory panel. Sensory results are reported in the following. […]

[3] = Cooling enhancement in WS-5 (30 ppm); format: in vivo
Method: (§1) The cooling enhancement of Formula I and Na-Formula I in cooling compounds including WS-5 (30 ppm), WS-23 (35 ppm), menthyl lactate (35 ppm), WS-3 (30 ppm) and Cooler 2 (10 ppm) was also evaluated.

[4] = Cooling enhancement in WS-23 (35 ppm); format: in vivo
Method: as §1

[5] = Cooling enhancement in menthyl lactate (35 ppm); format: in vivo
Method: as §1

[6] = Cooling enhancement in WS-3 (30 ppm); format: in vivo
Method: as §1

[7] = Cooling enhancement in Cooler 2 (10 ppm); format: in vivo
Method: as §1

[8] = Cooling enhancement in various cooling compounds (summary of Example VII); format: in vivo; settings: WS-5, WS-23, menthyl lactate, WS-3, Cooler 2; table footnote
Method: as §1

[9] = Solubility in aqueous solutions; format: physicochemical

Structure (SMILES): O=c1cc(-c2ccccc2)oc2c(O)c(O)ccc12 [Formula I, 7,8-dihydroxy-2-phenyl-4H-chromen-4-one]
- Cooling property [1]: no cooling property
- Cooling enhancement, overall statement ([2]; menthol 35 ppm, table footnote): Formula I enhanced the cooling sensation of menthol.
- Flavor Profile: cooling enhancement ([2]; menthol 35 ppm, test substance 1 ppm): Marginal cooling enhancement
- Flavor Profile: cooling enhancement ([2]; menthol 35 ppm, test substance 2 ppm): Marginal cooling enhancement
- Flavor Profile: cooling enhancement ([2]; menthol 35 ppm, test substance 5 ppm): Marginal cooling enhancement
- Flavor Profile: cooling enhancement ([2]; menthol 35 ppm, test substance 10 ppm): ~10% cooling enhancement
- Flavor Profile: cooling enhancement ([2]; menthol 35 ppm, test substance 20 ppm): ~20% cooling enhancement,
- Flavor Profile: cooling enhancement ([2]; menthol 35 ppm, test substance 30 ppm): ~20% cooling enhancement, slight
- Flavor Profile: cooling enhancement ([2]; menthol 35 ppm, test substance 40 ppm): Cooling enhancement, reduced
- Flavor Profile: cooling enhancement ([2]; menthol 35 ppm, test substance 50 ppm): Cooling enhancement, harsh
- Flavor Profile: cooling enhancement ([2]; menthol 35 ppm, test substance 100 ppm): Cooling enhancement, harsh
- Evaluation on the Cooling Enhancement ([3]; test substance 1 ppm): Marginal
- Evaluation on the Cooling Enhancement ([3]; test substance 2 ppm): Marginal
- Evaluation on the Cooling Enhancement ([3]; test substance 5 ppm): Marginal
- Evaluation on the Cooling Enhancement ([3]; test substance 10 ppm): ~15% enhancement
- Evaluation on the Cooling Enhancement ([3]; test substance 20 ppm): ~20% enhancement
- Evaluation on the Cooling Enhancement ([3]; test substance 30 ppm): ~20% enhancement,
- Evaluation on the Cooling Enhancement ([3]; test substance 40 ppm): Enhancement,
- Evaluation on the Cooling Enhancement ([3]; test substance 50 ppm): Enhancement,
- Evaluation on the Cooling Enhancement ([3]; test substance 100 ppm): Enhancement,
- Evaluation on the Cooling Enhancement ([4]; test substance 1 ppm): Marginal
- Evaluation on the Cooling Enhancement ([4]; test substance 2 ppm): Marginal
- Evaluation on the Cooling Enhancement ([4]; test substance 5 ppm): Marginal
- Evaluation on the Cooling Enhancement ([4]; test substance 10 ppm): ~10% enhancement
- Evaluation on the Cooling Enhancement ([4]; test substance 20 ppm): ~20% enhancement
- Evaluation on the Cooling Enhancement ([4]; test substance 30 ppm): ~20% enhancement,
- Evaluation on the Cooling Enhancement ([4]; test substance 40 ppm): Enhancement,
- Evaluation on the Cooling Enhancement ([4]; test substance 50 ppm): Enhancement,
- Evaluation on the Cooling Enhancement ([4]; test substance 100 ppm): Enhancement,
- Evaluation on the Cooling Enhancement ([5]; test substance 1 ppm): Marginal
- Evaluation on the Cooling Enhancement ([5]; test substance 2 ppm): Marginal
- Evaluation on the Cooling Enhancement ([5]; test substance 5 ppm): Marginal
- Evaluation on the Cooling Enhancement ([5]; test substance 10 ppm): ~10% enhancement
- Evaluation on the Cooling Enhancement ([5]; test substance 20 ppm): ~20% enhancement
- Evaluation on the Cooling Enhancement ([5]; test substance 30 ppm): ~20% enhancement,
- Evaluation on the Cooling Enhancement ([5]; test substance 40 ppm): Enhancement,
- Evaluation on the Cooling Enhancement ([5]; test substance 50 ppm): Enhancement,
- Evaluation on the Cooling Enhancement ([5]; test substance 100 ppm): Enhancement,
- Evaluation on the Cooling Enhancement ([6]; test substance 1 ppm): Marginal
- Evaluation on the Cooling Enhancement ([6]; test substance 2 ppm): Marginal
- Evaluation on the Cooling Enhancement ([6]; test substance 5 ppm): Marginal
- Evaluation on the Cooling Enhancement ([6]; test substance 10 ppm): ~15% enhancement
- Evaluation on the Cooling Enhancement ([6]; test substance 20 ppm): ~20% enhancement
- Evaluation on the Cooling Enhancement ([6]; test substance 30 ppm): ~20% enhancement,
- Evaluation on the Cooling Enhancement ([6]; test substance 40 ppm): Enhancement,
- Evaluation on the Cooling Enhancement ([6]; test substance 50 ppm): Enhancement,
- Evaluation on the Cooling Enhancement ([6]; test substance 100 ppm): Enhancement,
- Evaluation on the Cooling Enhancement ([7]; test substance 1 ppm): Marginal
- Evaluation on the Cooling Enhancement ([7]; test substance 2 ppm): Marginal
- Evaluation on the Cooling Enhancement ([7]; test substance 5 ppm): Marginal
- Evaluation on the Cooling Enhancement ([7]; test substance 10 ppm): ~10% enhancement
- Evaluation on the Cooling Enhancement ([7]; test substance 20 ppm): ~10% enhancement
- Evaluation on the Cooling Enhancement ([7]; test substance 30 ppm): ~20% enhancement,
- Evaluation on the Cooling Enhancement ([7]; test substance 40 ppm): Enhancement,
- Evaluation on the Cooling Enhancement ([7]; test substance 50 ppm): Enhancement,
- Evaluation on the Cooling Enhancement ([7]; test substance 100 ppm): Enhancement,
- Cooling enhancement, overall statement [8]: Formula I and Na-Formula I enhanced the cooling sensation of various cooling compounds.
- Solubility in aqueous solutions [9]: sparingly soluble

Structure (SMILES): CC1CCC(C(C)C)C(O)C1 (centres unmarked) [Menthol, menthol, reference compound]
- Flavor Profile ([2]; menthol 35 ppm alone, 0 ppm enhancer): Cooling sensation
